Assay results from ChEMBL document CHEMBL1201862, “PubChem BioAssay data set” (2004).
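In this assay, cells in 96-well plates receive the compound at five concentrations for 48 hours. Endpoints are linearly interpolated between the surrounding concentrations. GI50 = concentration required for 50% inhibition of growth.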 Activity calls are given as the source filed them. No stated cut-off is given here; in the data, active = GI50 up to about 1.1 µM and inactive = higher.

Key:
Assay in all cases: growth of human tumour cells (NCI), 48 h
[1] = test system: 786-0
[2] = test system: A498
[3] = test system: A549
[4] = test system: ACHN
[5] = test system: CCRF-CEM
[6] = test system: COLO 205
[7] = test system: HCT-116
[8] = test system: HCT-15
[9] = test system: KM12
[10] = test system: M14
[11] = test system: MDA-MB-435
[12] = test system: NCI-H23
[13] = test system: SK-OV-3
[14] = test system: SNB-75
[15] = test system: SR
[16] = test system: SW-620
[17] = test system: TK-10
[18] = test system: UACC-257
[19] = test system: UO-31
[20] = test system: SF-539

SMILES | GI50 [1] | GI50 [2] | GI50 [3] | GI50 [4] | GI50 [5] | GI50 [6] | GI50 [7] | GI50 [8] | GI50 [9] | GI50 [10] | GI50 [11] | GI50 [12] | GI50 [13] | GI50 [14] | GI50 [15] | GI50 [16] | GI50 [17] | GI50 [18] | GI50 [19] | GI50 [20]
CCOC(=O)c1ccc(C(=O)C(C(C)=O)C(=O)OC(C)(C)C)n1C (centres undefined) | > 100 µM (inactive) | > 100 µM (inactive) | > 100 µM (inactive) | > 100 µM (inactive) | 71.3 µM (inactive) | > 100 µM (inactive) | > 100 µM (inactive) | > 100 µM | > 100 µM (inactive) | > 100 µM (inactive) | > 100 µM (inactive) | > 100 µM (inactive) | > 100 µM (inactive) | 78.5 µM (inactive) | 57.4 µM (inactive) | > 100 µM (inactive) | > 100 µM (inactive) | > 100 µM (inactive) | > 100 µM (inactive) | 
O=C(O)c1ccc(C2=Nc3cccc4cccc(c34)N2)cc1 | > 100 µM (inactive) |  | > 100 µM (inactive) | > 100 µM (inactive) | 24.7 µM (inactive) | > 100 µM (inactive) | > 100 µM (inactive) | > 100 µM | > 100 µM (inactive) | > 100 µM (inactive) | > 100 µM (inactive) | > 100 µM (inactive) | > 100 µM (inactive) | > 100 µM (inactive) | 30.6 µM (inactive) | > 100 µM (inactive) | > 100 µM (inactive) | > 100 µM (inactive) | > 100 µM (inactive) | > 100 µM (inactive)
CN(CCc1ccccn1)C(=S)N/N=C(\c1ccccc1)c1ccccn1 | 0.0419 µM (active) | < 0.01 µM (active) | < 0.0404 µM (active) | < 0.01 µM (active) | < 0.01 µM (active) | < 0.01 µM (active) | < 0.01 µM (active) | < 0.01 µM | 0.0194 µM (active) | < 0.0394 µM (active) | 0.573 µM (active) | < 0.01 µM (active) | < 0.01 µM (active) | 1.3 µM (inactive) | 0.0489 µM (active) | < 0.01 µM (active) | 0.524 µM (active) | < 0.01 µM (active) | 0.0192 µM (active) | 
C/C(=N/O)c1cccc(Nc2nc3ccc(Cl)cc3c3[nH]c4ccccc4c23)c1 | 1.36 µM (inactive) |  | 1.6 µM (inactive) | 0.929 µM (active) | 1.34 µM (inactive) | 1.77 µM (inactive) | 0.205 µM (active) | 1.44 µM | 1.38 µM (inactive) | 1.82 µM (inactive) | 1.81 µM (inactive) | 1.92 µM (inactive) | 3.42 µM (inactive) | < 0.01 µM (active) | 1.24 µM (inactive) | 1.06 µM (active) | 2.32 µM (inactive) | 3.53 µM (inactive) | 2.33 µM (inactive) | 3.33 µM (inactive)
Cc1cc2c(=O)[nH]nc(N)c2c(N)n1 | > 100 µM (inactive) | > 100 µM (inactive) | > 100 µM (inactive) | > 100 µM (inactive) | > 100 µM (inactive) | > 100 µM (inactive) | > 100 µM (inactive) | > 100 µM | > 100 µM (inactive) | > 100 µM (inactive) | > 100 µM (inactive) | > 100 µM (inactive) | > 100 µM (inactive) |  | > 100 µM (inactive) | > 100 µM (inactive) | > 100 µM (inactive) | > 100 µM (inactive) | > 100 µM (inactive) | 
CCCCOC(=O)Nc1ccc(S(=O)(=O)Nc2ccccc2Cl)cc1 | 21.5 µM (inactive) | 12.8 µM (inactive) | 32.5 µM (inactive) | 27.8 µM (inactive) | 19.2 µM (inactive) | 20.7 µM (inactive) | 22.4 µM (inactive) | 21.3 µM | 24 µM (inactive) | 19.8 µM (inactive) | 18.8 µM (inactive) | 25.6 µM (inactive) | 16.8 µM (inactive) |  | 4.04 µM (inactive) | 14.1 µM (inactive) | 21.6 µM (inactive) | 31.3 µM (inactive) | 25.6 µM (inactive) | 17.6 µM (inactive)
CSc1ncnc2c1cnn2Cc1cnnn1COCC(O)CO (centres undefined) | > 100 µM (inactive) | > 100 µM (inactive) | > 100 µM (inactive) | > 100 µM (inactive) | > 100 µM (inactive) | > 100 µM (inactive) | > 100 µM (inactive) | > 100 µM | > 100 µM (inactive) | > 100 µM (inactive) | > 100 µM (inactive) | > 100 µM (inactive) | > 100 µM (inactive) |  | > 100 µM (inactive) | > 100 µM (inactive) | > 100 µM (inactive) | > 100 µM (inactive) | > 100 µM (inactive) | > 100 µM (inactive)
CSc1cc(Cl)c(C)cc1S(=O)(=O)NC(=O)NNc1cnc2ccccc2n1 | > 100 µM (inactive) | > 100 µM (inactive) | > 100 µM (inactive) | > 100 µM (inactive) | > 100 µM (inactive) | > 100 µM (inactive) | > 100 µM (inactive) | > 100 µM | > 100 µM (inactive) | > 100 µM (inactive) | > 100 µM (inactive) |  | > 100 µM (inactive) |  | > 100 µM (inactive) | > 100 µM (inactive) |  |  |  | > 100 µM (inactive)
COC(=O)C1=C(C)NC(C)=C(C(=O)OC)C1c1ccccc1NO | > 100 µM (inactive) | > 100 µM (inactive) | > 100 µM (inactive) | > 100 µM (inactive) | 68.5 µM (inactive) | > 100 µM (inactive) | 21.9 µM (inactive) | > 100 µM | > 100 µM (inactive) | > 100 µM (inactive) | 47.2 µM (inactive) | > 100 µM (inactive) | > 100 µM (inactive) |  | 28.4 µM (inactive) | 68.1 µM (inactive) | > 100 µM (inactive) | > 100 µM (inactive) | > 100 µM (inactive) | > 100 µM (inactive)
O=C1NC(N2CCCCC2)=N/C1=C\c1ccccc1 | > 100 µM (inactive) |  | > 100 µM (inactive) | > 100 µM (inactive) | > 100 µM (inactive) | > 100 µM (inactive) | > 100 µM (inactive) | > 100 µM | > 100 µM (inactive) | > 100 µM (inactive) | > 100 µM (inactive) | > 100 µM (inactive) | > 100 µM (inactive) | > 100 µM (inactive) | > 100 µM (inactive) | > 100 µM (inactive) | > 100 µM (inactive) | > 100 µM (inactive) | > 100 µM (inactive) | > 100 µM (inactive)
C=C1CCCC2[C@](C)(CC3=C(Cl)C(=O)C=C(OC)C3=O)C(C)CC[C@]12C (some centres undefined) | 1.85 µM (inactive) | 8.49 µM (inactive) | 5.27 µM (inactive) | 4.66 µM (inactive) | 1.45 µM (inactive) | 3.37 µM (inactive) | 1.75 µM (inactive) | 3.46 µM | 2.26 µM (inactive) | 4.33 µM (inactive) | 6.62 µM (inactive) | 4.49 µM (inactive) | 20.7 µM (inactive) |  | 1.47 µM (inactive) | 3.02 µM (inactive) | 4.34 µM (inactive) | 5.89 µM (inactive) | 1.76 µM (inactive) | 2.33 µM (inactive)
COC(=O)C1(C(=O)OC)C/C(C)=C(/C)SCCCS1 | > 100 µM (inactive) |  | > 100 µM (inactive) | > 100 µM (inactive) | > 100 µM (inactive) | > 100 µM (inactive) | > 100 µM (inactive) | > 100 µM | > 100 µM (inactive) | > 100 µM (inactive) | > 100 µM (inactive) | > 100 µM (inactive) | > 100 µM (inactive) | 28.4 µM (inactive) | 81.3 µM (inactive) | > 100 µM (inactive) | > 100 µM (inactive) | 71.9 µM (inactive) | > 100 µM (inactive) | > 100 µM (inactive)
O=C1Oc2ccccc2C(=O)/C1=C/NC(=S)NCCc1ccccc1 | 38.7 µM (inactive) |  | 49 µM (inactive) | 19.2 µM (inactive) | 27.9 µM (inactive) | 48.4 µM (inactive) | 33.3 µM (inactive) | 34.6 µM | 37.2 µM (inactive) | 55 µM (inactive) | 48.6 µM (inactive) | 33.1 µM (inactive) | 33.6 µM (inactive) | 22.7 µM (inactive) | 14.6 µM (inactive) | 42.6 µM (inactive) | 32.1 µM (inactive) | 62.1 µM (inactive) | 17.1 µM (inactive) | 31.2 µM (inactive)
Cc1ccc(C(=O)O)c(CC2Cc3c(C)cccc3C2=O)c1 (centres undefined) | > 100 µM (inactive) |  | > 100 µM (inactive) | > 100 µM (inactive) | > 100 µM (inactive) | > 100 µM (inactive) | > 100 µM (inactive) | > 100 µM | > 100 µM (inactive) | > 100 µM (inactive) | > 100 µM (inactive) | > 100 µM (inactive) | > 100 µM (inactive) | > 100 µM (inactive) | > 100 µM (inactive) | > 100 µM (inactive) | > 100 µM (inactive) | > 100 µM (inactive) | > 100 µM (inactive) | > 100 µM (inactive)
CCOC(=O)N1CCC(=C2c3ccc(Cl)cc3CCc3cccnc32)CC1 [LORATADINE] | 15.2 µM (inactive) | 0.849 µM (active) | 13.4 µM (inactive) | 4.15 µM (inactive) | 4.32 µM (inactive) | 9.14 µM (inactive) | 11.2 µM (inactive) | 7.55 µM | 10.6 µM (inactive) | 12.4 µM (inactive) | 8.83 µM (inactive) | 15.8 µM (inactive) | 15.5 µM (inactive) |  | 2.64 µM (inactive) | 11.8 µM (inactive) | 13.2 µM (inactive) | 15 µM (inactive) | 1.64 µM (inactive) | 
